Columns and labels:
Japanese bulrush = experiment: Test Example 1: herbicidal activity, application before weed generation under submerged conditions (Table 16, symbol B); type: in vivo, Japanese bulrush (Schoenoplectus juncoides)
Summary of the method: (§1)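 Submerged Wagner pots (alluvial soil, 4 cm water) sown with weed seeds and planted with 2.5-leaf rice seedlings; emulsifiable concentrate diluted in water applied to water surface on sowing day. Held in greenhouse at 25-30 °C; injury scored 0-5 by herbicidal rate after three weeks.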

southern crabgrass [1] = experiment: Test Example 4: herbicidal effect by soil treatment (Table 19, symbol F); type: in vivo, southern crabgrass (Digitaria ciliaris)
Summary of the method: (§2)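 Seeds were sown in sterilized diluvial soil and covered with about 1.5 cm of soil. An emulsion formulation diluted with water to a predetermined herbicide amount was sprayed evenly onto the soil surface. Plants grew in a greenhouse at 25° C. to 30° C., and the effect was scored three weeks after application using criteria from an earlier test.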

redroot pigweed [2] = experiment: Test Example 4: herbicidal effect by soil treatment (Table 19, symbol N); type: in vivo, redroot pigweed (Amaranthus retroflexus)
Summary of the method: as §2

redroot pigweed [3] = experiment: Test Example 5: herbicidal effect by foliage application, plastic box (Table 20, symbol N); type: in vivo, redroot pigweed (Amaranthus retroflexus); conditions: foliage application, three weeks after application
Summary of the method: (§3)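 Plants sown in sterilized diluvial soil and grown 14 days in a greenhouse at 25° C to 30° C, then sprayed on the foliage with the compound's emulsion diluted in water to a predetermined herbicide amount. Injury to weeds and crops scored three weeks after application on a visual rating scale.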

chickweed [4] = experiment: Test Example 5: herbicidal effect by foliage application, plastic box (Table 20, symbol P); type: in vivo, common chickweed (Stellaria media); conditions: foliage application, three weeks after application
Summary of the method: as §3

oval-leafed pondweed = experiment: Test Example 1: herbicidal activity, application before weed generation under submerged conditions (Table 16, symbol C); type: in vivo, oval-leafed pondweed (Monochoria vaginalis)
Summary of the method: as §1

southern crabgrass [5] = experiment: Test Example 5: herbicidal effect by foliage application, plastic box (Table 20, symbol F); type: in vivo, southern crabgrass (Digitaria ciliaris); conditions: foliage application, three weeks after application
Summary of the method: as §3

windgrass [6] = experiment: Test Example 5: herbicidal effect by foliage application, plastic box (Table 20, symbol L); type: in vivo, windgrass (Apera spica-venti); conditions: foliage application, three weeks after application
Summary of the method: as §3

green foxtail [7] = experiment: Test Example 4: herbicidal effect by soil treatment (Table 19, symbol G); type: in vivo, green foxtail (Setaria viridis)
Summary of the method: as §2

chickweed [8] = experiment: Test Example 4: herbicidal effect by soil treatment (Table 19, symbol P); type: in vivo, common chickweed (Stellaria media)
Summary of the method: as §2

Italian ryegrass [9] = experiment: Test Example 4: herbicidal effect by soil treatment (Table 19, symbol K); type: in vivo, Italian ryegrass (Lolium multiflorum)
Summary of the method: as §2

lambsquarters [10] = experiment: Test Example 5: herbicidal effect by foliage application, plastic box (Table 20, symbol O); type: in vivo, lambsquarters (Chenopodium album); conditions: foliage application, three weeks after application
Summary of the method: as §3

persian speedwell [11] = experiment: Test Example 4: herbicidal effect by soil treatment (Table 19, symbol R); type: in vivo, Persian speedwell (Veronica persica)
Summary of the method: as §2

wild oat [12] = experiment: Test Example 5: herbicidal effect by foliage application, plastic box (Table 20, symbol I); type: in vivo, wild oat (Avena fatua); conditions: foliage application, three weeks after application
Summary of the method: as §3

barnyard grass [13] = experiment: Test Example 4: herbicidal effect by soil treatment (Table 19, symbol H); type: in vivo, barnyard grass (Echinochloa crus-galli)
Summary of the method: as §2

persian speedwell [14] = experiment: Test Example 5: herbicidal effect by foliage application, plastic box (Table 20, symbol R); type: in vivo, Persian speedwell (Veronica persica); conditions: foliage application, three weeks after application
Summary of the method: as §3

late watergrass = experiment: Test Example 1: herbicidal activity, application before weed generation under submerged conditions (Table 16, symbol A); type: in vivo, late watergrass (Echinochloa oryzicola)
Summary of the method: as §1

Italian ryegrass [15] = experiment: Test Example 5: herbicidal effect by foliage application, plastic box (Table 20, symbol K); type: in vivo, Italian ryegrass (Lolium multiflorum); conditions: foliage application, three weeks after application
Summary of the method: as §3

blackgrass [16] = experiment: Test Example 4: herbicidal effect by soil treatment (Table 19, symbol J); type: in vivo, blackgrass (Alopecurus myosuroides)
Summary of the method: as §2

rice flat sedge = experiment: Test Example 3: herbicidal effect by foliage application, Wagner pot (Table 18, symbol E); type: in vivo, rice flat sedge (Cyperus iria)
Summary of the method: (§4)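 Plants were sown in alluvial soil held under 0.1–0.5 cm standing water and grown 14 days in a greenhouse at 25–30 °C. An emulsifiable formulation, water-diluted to the set dose, was then sprayed onto the foliage, and effects were scored three weeks later using previously defined criteria.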

blackgrass [17] = experiment: Test Example 5: herbicidal effect by foliage application, plastic box (Table 20, symbol J); type: in vivo, blackgrass (Alopecurus myosuroides); conditions: foliage application, three weeks after application
Summary of the method: as §3

barnyard grass [18] = experiment: Test Example 5: herbicidal effect by foliage application, plastic box (Table 20, symbol H); type: in vivo, barnyard grass (Echinochloa crus-galli); conditions: foliage application, three weeks after application
Summary of the method: as §3

lambsquarters [19] = experiment: Test Example 4: herbicidal effect by soil treatment (Table 19, symbol O); type: in vivo, lambsquarters (Chenopodium album)
Summary of the method: as §2

barnyard grass [20] = experiment: Test Example 3: herbicidal effect by foliage application, Wagner pot (Table 18, symbol H); type: in vivo, barnyard grass (Echinochloa crus-galli)
Summary of the method: as §4

green foxtail [21] = experiment: Test Example 5: herbicidal effect by foliage application, plastic box (Table 20, symbol G); type: in vivo, green foxtail (Setaria viridis); conditions: foliage application, three weeks after application
Summary of the method: as §3

Chinese sprangletop = experiment: Test Example 3: herbicidal effect by foliage application, Wagner pot (Table 18, symbol D); type: in vivo, chinese sprangletop (Leptochloa chinensis)
Summary of the method: as §4

velvetleaf [22] = experiment: Test Example 4: herbicidal effect by soil treatment (Table 19, symbol M); type: in vivo, velvetleaf (Abutilon theophrasti)
Summary of the method: as §2

wild oat [23] = experiment: Test Example 4: herbicidal effect by soil treatment (Table 19, symbol I); type: in vivo, wild oat (Avena fatua)
Summary of the method: as §2

velvetleaf [24] = experiment: Test Example 5: herbicidal effect by foliage application, plastic box (Table 20, symbol M); type: in vivo, velvetleaf (Abutilon theophrasti); conditions: foliage application, three weeks after application
Summary of the method: as §3

windgrass [25] = experiment: Test Example 4: herbicidal effect by soil treatment (Table 19, symbol L); type: in vivo, windgrass (Apera spica-venti)
Summary of the method: as §2

[26] = amount of applied herbicide 272 g/ha
[27] = amount of applied herbicide 320 g/ha

COc1cc(F)ccc1-c1sc2ccccc2c1-c1c(O)c(C)nn(C)c1=O [1-055]
Herbicidal effect on B: Japanese bulrush (grade 0-5) (Japanese bulrush; 272 g/ha applied herbicide): 0 (Herbicidal rate of 5% or less (almost no effect))
herbicidal effect rating, F: southern crabgrass (southern crabgrass [1]; [26]): 2 (Herbicidal rate of 20% or more and less than 40%)
herbicidal effect rating, N: redroot pigweed (redroot pigweed [2]; [26]): 5 (Herbicidal rate of 90% or more (almost completely withered))
herbicidal effect grade, N: redroot pigweed (redroot pigweed [3]; 272 g/ha): 3 (Herbicidal rate of 40% or more and less than 70%)
herbicidal effect grade, P: chickweed (chickweed [4]; 272 g/ha): 5 (Herbicidal rate of 90% or more (almost completely withered))
Herbicidal effect on C: oval-leafed pondweed (grade 0-5) (oval-leafed pondweed; 272 g/ha applied herbicide): 0 (Herbicidal rate of 5% or less (almost no effect))
herbicidal effect grade, F: southern crabgrass (southern crabgrass [5]; 272 g/ha): 4 (Herbicidal rate of 70% or more and less than 90%)
herbicidal effect grade, L: windgrass (windgrass [6]; 272 g/ha): 5 (Herbicidal rate of 90% or more (almost completely withered))
herbicidal effect rating, G: green foxtail (green foxtail [7]; [26]): 5 (Herbicidal rate of 90% or more (almost completely withered))
herbicidal effect rating, P: chickweed (chickweed [8]; [26]): 5 (Herbicidal rate of 90% or more (almost completely withered))
herbicidal effect rating, K: Italian ryegrass (Italian ryegrass [9]; [26]): 3 (Herbicidal rate of 40% or more and less than 70%)
herbicidal effect grade, O: lambsquarters (lambsquarters [10]; 272 g/ha): 2 (Herbicidal rate of 20% or more and less than 40%)
herbicidal effect rating, R: persian speedwell (persian speedwell [11]; [26]): 5 (Herbicidal rate of 90% or more (almost completely withered))
herbicidal effect grade, I: wild oat (wild oat [12]; 272 g/ha): 5 (Herbicidal rate of 90% or more (almost completely withered))
herbicidal effect rating, H: barnyard grass (barnyard grass [13]; [26]): 4 (Herbicidal rate of 70% or more and less than 90%)
herbicidal effect grade, R: persian speedwell (persian speedwell [14]; 272 g/ha): 4 (Herbicidal rate of 70% or more and less than 90%)
Herbicidal effect on A: late watergrass (grade 0-5) (late watergrass; 272 g/ha applied herbicide): 4 (Herbicidal rate of 70% or more and less than 90%)
herbicidal effect grade, K: Italian ryegrass (Italian ryegrass [15]; 272 g/ha): 4 (Herbicidal rate of 70% or more and less than 90%)
herbicidal effect rating, J: blackgrass (blackgrass [16]; [26]): 3 (Herbicidal rate of 40% or more and less than 70%)
herbicidal effect on E (rice flat sedge), rating 0-5 (rice flat sedge; 272 g/ha): 5 (Herbicidal rate of 90% or more (almost completely withered))
herbicidal effect grade, J: blackgrass (blackgrass [17]; 272 g/ha): 5 (Herbicidal rate of 90% or more (almost completely withered))
herbicidal effect grade, H: barnyard grass (barnyard grass [18]; 272 g/ha): 4 (Herbicidal rate of 70% or more and less than 90%)
herbicidal effect rating, O: lambsquarters (lambsquarters [19]; [26]): 4 (Herbicidal rate of 70% or more and less than 90%)
herbicidal effect on H (barnyard grass), rating 0-5 (barnyard grass [20]; 272 g/ha): 5 (Herbicidal rate of 90% or more (almost completely withered))
herbicidal effect grade, G: green foxtail (green foxtail [21]; 272 g/ha): 4 (Herbicidal rate of 70% or more and less than 90%)
herbicidal effect on D (Chinese sprangletop), rating 0-5 (Chinese sprangletop; 272 g/ha): 2 (Herbicidal rate of 20% or more and less than 40%)
herbicidal effect rating, M: velvetleaf (velvetleaf [22]; [26]): 0 (Herbicidal rate of 5% or less (almost no effect))
herbicidal effect rating, I: wild oat (wild oat [23]; [26]): 3 (Herbicidal rate of 40% or more and less than 70%)
herbicidal effect grade, M: velvetleaf (velvetleaf [24]; 272 g/ha): 3 (Herbicidal rate of 40% or more and less than 70%)
herbicidal effect rating, L: windgrass (windgrass [25]; [26]): 3 (Herbicidal rate of 40% or more and less than 70%)

CCCC(=O)Oc1c(C)nn(C)c(=O)c1-c1c(-c2cc(F)ccc2OC)sc2ccccc12 [1-059]
Herbicidal effect on B: Japanese bulrush (grade 0-5) (Japanese bulrush; 320 g/ha applied herbicide): 2 (Herbicidal rate of 20% or more and less than 40%)
herbicidal effect rating, F: southern crabgrass (southern crabgrass [1]; [27]): 0 (Herbicidal rate of 5% or less (almost no effect))
herbicidal effect rating, N: redroot pigweed (redroot pigweed [2]; [27]): 0 (Herbicidal rate of 5% or less (almost no effect))
herbicidal effect grade, N: redroot pigweed (redroot pigweed [3]; 320 g/ha): 3 (Herbicidal rate of 40% or more and less than 70%)
herbicidal effect grade, P: chickweed (chickweed [4]; 320 g/ha): 5 (Herbicidal rate of 90% or more (almost completely withered))
Herbicidal effect on C: oval-leafed pondweed (grade 0-5) (oval-leafed pondweed; 320 g/ha applied herbicide): 1 (Herbicidal rate of 5% or more and less than 20%)
herbicidal effect grade, F: southern crabgrass (southern crabgrass [5]; 320 g/ha): 0 (Herbicidal rate of 5% or less (almost no effect))
herbicidal effect grade, L: windgrass (windgrass [6]; 320 g/ha): 4 (Herbicidal rate of 70% or more and less than 90%)
herbicidal effect rating, G: green foxtail (green foxtail [7]; [27]): 3 (Herbicidal rate of 40% or more and less than 70%)
herbicidal effect rating, P: chickweed (chickweed [8]; [27]): 0 (Herbicidal rate of 5% or less (almost no effect))
herbicidal effect rating, K: Italian ryegrass (Italian ryegrass [9]; [27]): 1 (Herbicidal rate of 5% or more and less than 20%)
herbicidal effect grade, O: lambsquarters (lambsquarters [10]; 320 g/ha): 3 (Herbicidal rate of 40% or more and less than 70%)
herbicidal effect rating, R: persian speedwell (persian speedwell [11]; [27]): 0 (Herbicidal rate of 5% or less (almost no effect))
herbicidal effect grade, I: wild oat (wild oat [12]; 320 g/ha): 2 (Herbicidal rate of 20% or more and less than 40%)
herbicidal effect rating, H: barnyard grass (barnyard grass [13]; [27]): 3 (Herbicidal rate of 40% or more and less than 70%)
herbicidal effect grade, R: persian speedwell (persian speedwell [14]; 320 g/ha): 2 (Herbicidal rate of 20% or more and less than 40%)
Herbicidal effect on A: late watergrass (grade 0-5) (late watergrass; 320 g/ha applied herbicide): 3 (Herbicidal rate of 40% or more and less than 70%)
herbicidal effect grade, K: Italian ryegrass (Italian ryegrass [15]; 320 g/ha): 2 (Herbicidal rate of 20% or more and less than 40%)
herbicidal effect rating, J: blackgrass (blackgrass [16]; [27]): 3 (Herbicidal rate of 40% or more and less than 70%)
herbicidal effect on E (rice flat sedge), rating 0-5 (rice flat sedge; 320 g/ha): 5 (Herbicidal rate of 90% or more (almost completely withered))
herbicidal effect grade, J: blackgrass (blackgrass [17]; 320 g/ha): 3 (Herbicidal rate of 40% or more and less than 70%)
herbicidal effect grade, H: barnyard grass (barnyard grass [18]; 320 g/ha): 3 (Herbicidal rate of 40% or more and less than 70%)
herbicidal effect rating, O: lambsquarters (lambsquarters [19]; [27]): 3 (Herbicidal rate of 40% or more and less than 70%)
herbicidal effect on H (barnyard grass), rating 0-5 (barnyard grass [20]; 320 g/ha): 3 (Herbicidal rate of 40% or more and less than 70%)
herbicidal effect grade, G: green foxtail (green foxtail [21]; 320 g/ha): 2 (Herbicidal rate of 20% or more and less than 40%)
herbicidal effect on D (Chinese sprangletop), rating 0-5 (Chinese sprangletop; 320 g/ha): 1 (Herbicidal rate of 5% or more and less than 20%)
herbicidal effect rating, M: velvetleaf (velvetleaf [22]; [27]): 0 (Herbicidal rate of 5% or less (almost no effect))
herbicidal effect rating, I: wild oat (wild oat [23]; [27]): 0 (Herbicidal rate of 5% or less (almost no effect))
herbicidal effect grade, M: velvetleaf (velvetleaf [24]; 320 g/ha): 2 (Herbicidal rate of 20% or more and less than 40%)
herbicidal effect rating, L: windgrass (windgrass [25]; [27]): 3 (Herbicidal rate of 40% or more and less than 70%)

Source: patent US20230085307A1, “PYRIDAZINONE COMPOUND AND HERBICIDE” (NISSAN CHEMICAL CORPORATION, priority 2019, published 2023)
